From patent publication US10940151B2, “Methods for treating renal disease” (Beth Israel Deaconess Medical Center, Inc., priority 2012, dated 2021)
“Also recorded” adds a separate entry of the source.

Columns and labels:
Assay type in all cases: cell-based
[1] = tested on: APOL1 mRNA expression in endothelial cells; assay: APOL1 mRNA expression in endothelial cells treated with interferon beta and JAK inhibitors; conditions: interferon beta (FIG. 4A-4C)
From the text: JAK inhibitors are in clinical testing for autoimmune disease, transplant immunosuppression, and myelodysplastic syndromes. They are selective, rather than specific, for individual JAK inhibitors. For example, WHI-P131 targets JAK3, INCB018424 (ruxolitinib) targets […] and JAK2, and TG101348 targets JAK2.

[2] = tested on: APOL1 expression in podocytes; assay: APOL1 expression in podocytes treated with TLR3 agonist poly(I:C) and inhibitors; conditions: podocytes (not shown)
[3] = tested on: APOL1 mRNA expression in endothelial cells; assay: APOL1 mRNA expression in endothelial cells after stimulation with interferons, TLR/RIG agonists or bacterial DNA; conditions: interferon stimulation (FIG. 3A, 3B)
From the text: HIV is a powerful inducer of APOL1 renal disease in individuals with the renal risk genotype. Other viruses such as parvovirus have been associated with FSGS. […] Cells have extracellular, endosomal, and cytoplasmic viral sensors such as TLRs, Rig-L1, and others. These genes are potential targets for reducing APOL1 expression.

[4] = tested on: APOL1 expression in endothelial cells; assay: APOL1 expression in endothelial cells treated with TLR3 agonist poly(I:C) and inhibitors; conditions: TLR3 agonist poly(I:C) (FIG. 8-13)
Procedure: Endothelial cells were treated with the TLR3 agonist poly(I:C) and with JAK inhibitors (FIGS. 8A-8D), Bx795(a TBK1/IKKe inhibitor) (FIG. 9), and chloroquine (FIG. 10). […] The TBK1/IKK e complex is used by both TLR and Rig-like receptor signaling mechanisms, and therefore offers a broader target for inhibition of APOL1 expression than either pathway alone. Chloroquine and similar class of compounds may be particularly useful for inhibiting APOL1 expression when that expression is driven by endosomal pattern recognition receptors such as TLR3, TLR7, TLR8, TLR9, and in some cases TLR4. Even though TLR3 expression is described above as an example, these strategies are likely to be effective in blocking APOL1 expression driven by multiple inflammatory stimuli.
Endothelial cells were treated with the TLR3 agonist poly(I:C) and with NF-κB inhibitors (FIG. 11), PKR inhibitors (FIG. 12), and MAP kinase inhibitors (FIG. 13).

APOL1 expression = assay: shRNA knockdown experiments on poly(I:C)-induced APOL1 upregulation; conditions: polyI:C versus control, GFP virus control (FIG. 14)
From the text: To validate pharmacologic targets that may regulate pathogenic APOL1 expression, we used shRNA to determine specific genes that mediate the APOL1 upregulation induced by poly(I:C). These experiments allowed us to confirm targets identified above by pharmacologic methods and to identify additional known targets in these same pathways. […] The data shown in FIG. 14 validates several pathways identified by the pharmacological experiments described above and identifies additional pathways that can be targeted to decrease pathogenic APOL1 expression.

N#CC[C@H](C1CCCC1)n1cc(-c2ncnc3[nH]ccc23)cn1 [INCB018424]
effect on APOL1 upregulation caused by interferon beta (in words) [1]: block the potentially pathologic upregulation of APOL1

Oc1c2ccccc2c2c3c(cccc13)N=N2 [SP600125]
inhibition of APOL1 expression [2]: 50%

interferon gamma: type 2 (gamma) interferon
upregulation of APOL1 [3]: up to 200 fold

Cc1cnc(Nc2ccc(OCCN3CCCC3)cc2)nc1Nc1cccc(S(=O)(=O)NC(C)(C)C)c1 [TG101348]
effect on APOL1 upregulation caused by interferon beta (in words) [1]: block the potentially pathologic upregulation of APOL1

CC(C)(C)c1ccc(S(=O)(=O)/C=C/C#N)cc1 [Bay 11-7085]
effect on poly(I:C) induced APOL1 upregulation (in words) [4]: could be inhibited

C[S+]([O-])c1ccc(-c2nc(-c3ccncc3)c(-c3ccc(F)cc3)[nH]2)cc1 (stereo not shown) [SB203580]
effect on poly(I:C) induced APOL1 upregulation (in words) [4]: inhibited blocked poly(I:C) induced APOL1 upregulation; also recorded: inhibited APOL1 expression

polyI:C
stimulation of APOL1 expression (in words) (APOL1 expression): strongly stimulates APOL1 expression

O=C1Nc2ccc3ncsc3c2/C1=C/c1c[nH]cn1 [imidazolo-oxindole PKR inhibitor]
effect on poly(I:C) induced APOL1 upregulation (in words) [4]: blocks APOL1 upregulation | effect on poly(I:C) induced APOL1 upregulation (in words) ([4]; listed as drawing 4): completely blocked poly(I:C) induced APOL1 upregulation

COc1cc2ncnc(Nc3ccc(O)cc3)c2cc1OC [WHI-P131]
effect on APOL1 upregulation caused by interferon beta (in words) [1]: block the potentially pathologic upregulation of APOL1

Nc1ccc2ncnc(NCCc3ccc(Oc4ccccc4)cc3)c2c1 [6A4Q, 6-amino-4-(4-phenoxyphenylethylamino) quinazoline]
effect on poly(I:C) induced APOL1 upregulation (in words) [4]: could be inhibited

O=C(NCCCNc1nc(Nc2cccc(NC(=O)N3CCCC3)c2)ncc1I)c1cccs1 [Bx795]
effect on poly(I:C) induced APOL1 upregulation (in words) [4]: reduced the poly(I:C) induced increased in APOL1 expression

CCN(CC)CCCC(C)Nc1ccnc2cc(Cl)ccc12 (stereo not shown) [chloroquine]
effect on poly(I:C) induced APOL1 upregulation (in words) [4]: reduced the poly(I:C) induced increased in APOL1 expression
